This data set is described as follows: activity coefficient (dimensionless); of the first substance listed, at infinite dilution; xn = mol fraction of the nth substance listed. Conditions: Liquid, Chromatography, x1 = 0.

The structures appear in SMILES notation. Numbers after ± are expanded uncertainties.

For the molecule `C1CCCCC1` [cyclohexane] + CCCCCCn1cc[n+](C)c1.N#C[B-](C#N)(C#N)C#N, the activity coefficient runs as follows: (318.15 K) 6.52 ± 0.3; (328.15 K) 6.15 ± 0.28; (338.15 K) 5.85 ± 0.27; (348.15 K) 5.58 ± 0.26; (358.15 K) 5.38 ± 0.25; (368.15 K) 5.21 ± 0.24.

On to `C1=CCCCC1` [cyclohexene] + CCCCCCn1cc[n+](C)c1.N#C[B-](C#N)(C#N)C#N, for which the activity coefficient worked out at 3.48 ± 0.16 (318.15 K); 3.38 ± 0.15 (328.15 K); 3.27 ± 0.15 (338.15 K); 3.25 ± 0.15 (348.15 K); 3.17 ± 0.14 (358.15 K); 3.14 ± 0.14 (368.15 K).

Consider `C1CCCCCCC1` [cyclooctane] + CCCCCCn1cc[n+](C)c1.N#C[B-](C#N)(C#N)C#N, for which the activity coefficient (318.15 K) was 9.94 ± 0.46; the activity coefficient (328.15 K) came to 9.29 ± 0.43; the activity coefficient (338.15 K) was found to be 8.75 ± 0.4; the activity coefficient (348.15 K) worked out at 8.33 ± 0.38; the activity coefficient (358.15 K) is 7.9 ± 0.36; the activity coefficient (368.15 K) was found to be 7.57 ± 0.35.

For the molecule `C1CCCC1` [cyclopentane] + CCCCCCn1cc[n+](C)c1.N#C[B-](C#N)(C#N)C#N, the activity coefficient (318.15 K) was found to be 4.65 ± 0.21; the activity coefficient (328.15 K) came out at 4.45 ± 0.2; the activity coefficient (338.15 K) came out at 4.28 ± 0.2; the activity coefficient (348.15 K) amounted to 4.14 ± 0.19; the activity coefficient (358.15 K) was 4.02 ± 0.18; the activity coefficient (368.15 K) amounted to 3.93 ± 0.18.

Turning to `CCCCCCCCCC` [decane] + CCCCCCn1cc[n+](C)c1.N#C[B-](C#N)(C#N)C#N, the activity coefficient (318.15 K) amounted to 43.6 ± 2; the activity coefficient (328.15 K) worked out at 40 ± 1.9; the activity coefficient (338.15 K) is 36.4 ± 1.7; the activity coefficient (348.15 K) worked out at 33.8 ± 1.6; the activity coefficient (358.15 K) came out at 31.3 ± 1.5; the activity coefficient (368.15 K) was found to be 29.3 ± 1.4.

As for `CCOCC` [diethyl ether] + CCCCCCn1cc[n+](C)c1.N#C[B-](C#N)(C#N)C#N, the activity coefficient was 1.59 ± 0.06 (318.15 K); 1.62 ± 0.07 (328.15 K); 1.64 ± 0.07 (338.15 K); 1.68 ± 0.07 (348.15 K); 1.71 ± 0.07 (358.15 K); 1.76 ± 0.07 (368.15 K).

Take `CC(C)OC(C)C` [diisopropyl ether] + CCCCCCn1cc[n+](C)c1.N#C[B-](C#N)(C#N)C#N: the activity coefficient was found to be 3.68 ± 0.17 (318.15 K); 3.71 ± 0.17 (328.15 K); 3.75 ± 0.17 (338.15 K); 3.8 ± 0.17 (348.15 K); 3.82 ± 0.17 (358.15 K); 3.87 ± 0.18 (368.15 K).

Turning to `CCCOCCC` [dipropyl ether] + CCCCCCn1cc[n+](C)c1.N#C[B-](C#N)(C#N)C#N, the activity coefficient is, setting by setting: (318.15 K) 3.82 ± 0.17; (328.15 K) 3.77 ± 0.17; (338.15 K) 3.73 ± 0.17; (348.15 K) 3.74 ± 0.17; (358.15 K) 3.72 ± 0.17; (368.15 K) 3.73 ± 0.17.

`CCO` [ethanol] + CCCCCCn1cc[n+](C)c1.N#C[B-](C#N)(C#N)C#N: the activity coefficient was found to be 1.05 ± 0.03 (318.15 K); 0.978 ± 0.025 (328.15 K); 0.912 ± 0.026 (338.15 K); 0.855 ± 0.027 (348.15 K); 0.807 ± 0.028 (358.15 K); 0.761 ± 0.029 (368.15 K).

Consider `CCOC(C)=O` [ethyl acetate] + CCCCCCn1cc[n+](C)c1.N#C[B-](C#N)(C#N)C#N, for which the activity coefficient amounted to 0.664 ± 0.03 (318.15 K); 0.684 ± 0.03 (328.15 K); 0.701 ± 0.029 (338.15 K); 0.715 ± 0.029 (348.15 K); 0.733 ± 0.029 (358.15 K); 0.751 ± 0.029 (368.15 K).

As for `CCc1ccccc1` [ethylbenzene] + CCCCCCn1cc[n+](C)c1.N#C[B-](C#N)(C#N)C#N, the activity coefficient reads like this: (318.15 K) 1.39 ± 0.05; (328.15 K) 1.41 ± 0.05; (338.15 K) 1.43 ± 0.05; (348.15 K) 1.45 ± 0.05; (358.15 K) 1.47 ± 0.06; (368.15 K) 1.49 ± 0.06.

As to `CCCCCCC` [heptane] + CCCCCCn1cc[n+](C)c1.N#C[B-](C#N)(C#N)C#N, the activity coefficient came out at 16.5 ± 0.8 (318.15 K); 15.4 ± 0.7 (328.15 K); 14.5 ± 0.7 (338.15 K); 13.7 ± 0.6 (348.15 K); 13 ± 0.6 (358.15 K); 12.4 ± 0.6 (368.15 K).

Take `C=CCCCC` [hex-1-ene] + CCCCCCn1cc[n+](C)c1.N#C[B-](C#N)(C#N)C#N: the activity coefficient (318.15 K) turned out to be 6.13 ± 0.28; the activity coefficient (328.15 K) stood at 5.88 ± 0.27; the activity coefficient (338.15 K) is 5.71 ± 0.26; the activity coefficient (348.15 K) was determined as 5.58 ± 0.26; the activity coefficient (358.15 K) was 5.44 ± 0.25; the activity coefficient (368.15 K) amounted to 5.35 ± 0.24.

Consider `CCCCCC` [hexane] + CCCCCCn1cc[n+](C)c1.N#C[B-](C#N)(C#N)C#N, for which the activity coefficient runs as follows: (318.15 K) 11.8 ± 0.5; (328.15 K) 11.2 ± 0.5; (338.15 K) 10.6 ± 0.5; (348.15 K) 10.2 ± 0.5; (358.15 K) 9.79 ± 0.45; (368.15 K) 9.53 ± 0.44.

As for `CO` [methanol] + CCCCCCn1cc[n+](C)c1.N#C[B-](C#N)(C#N)C#N, the activity coefficient (318.15 K) came out at 0.837 ± 0.027; the activity coefficient (328.15 K) was determined as 0.786 ± 0.028; the activity coefficient (338.15 K) turned out to be 0.745 ± 0.029; the activity coefficient (348.15 K) worked out at 0.704 ± 0.029; the activity coefficient (358.15 K) was found to be 0.668 ± 0.03; the activity coefficient (368.15 K) worked out at 0.633 ± 0.031.

Regarding `CCCC(=O)OC` [methyl butanoate] + CCCCCCn1cc[n+](C)c1.N#C[B-](C#N)(C#N)C#N, the activity coefficient (318.15 K) was determined as 0.664 ± 0.03; the activity coefficient (328.15 K) was found to be 0.684 ± 0.03; the activity coefficient (338.15 K) came to 0.701 ± 0.029; the activity coefficient (348.15 K) came out at 0.715 ± 0.029; the activity coefficient (358.15 K) was 0.733 ± 0.029; the activity coefficient (368.15 K) was determined as 0.751 ± 0.029.

On to `COC(C)=O` [methyl ethanoate] + CCCCCCn1cc[n+](C)c1.N#C[B-](C#N)(C#N)C#N, for which the activity coefficient was 0.508 ± 0.032 (318.15 K); 0.521 ± 0.032 (328.15 K); 0.538 ± 0.032 (338.15 K); 0.55 ± 0.032 (348.15 K); 0.566 ± 0.032 (358.15 K); 0.586 ± 0.031 (368.15 K).

`CCC(=O)OC` [methyl propanoate] + CCCCCCn1cc[n+](C)c1.N#C[B-](C#N)(C#N)C#N: the activity coefficient (318.15 K) was found to be 0.609 ± 0.031; the activity coefficient (328.15 K) worked out at 0.628 ± 0.031; the activity coefficient (338.15 K) came to 0.648 ± 0.03; the activity coefficient (348.15 K) is 0.668 ± 0.03; the activity coefficient (358.15 K) came out at 0.685 ± 0.03; the activity coefficient (368.15 K) was found to be 0.705 ± 0.029.

On to `CC1CCCCC1` [methylcyclohexane] + CCCCCCn1cc[n+](C)c1.N#C[B-](C#N)(C#N)C#N, for which the activity coefficient (318.15 K) turned out to be 8.87 ± 0.41; the activity coefficient (328.15 K) was determined as 8.35 ± 0.38; the activity coefficient (338.15 K) is 7.87 ± 0.36; the activity coefficient (348.15 K) turned out to be 7.58 ± 0.35; the activity coefficient (358.15 K) worked out at 7.24 ± 0.33; the activity coefficient (368.15 K) is 7 ± 0.32.

Take `CCCCCCCCC` [nonane] + CCCCCCn1cc[n+](C)c1.N#C[B-](C#N)(C#N)C#N: the activity coefficient reads like this: (318.15 K) 31.4 ± 1.5; (328.15 K) 28.8 ± 1.3; (338.15 K) 26.6 ± 1.2; (348.15 K) 24.9 ± 1.2; (358.15 K) 23.2 ± 1.1; (368.15 K) 21.9 ± 1.

Take `C=CCCCCCC` [oct-1-ene] + CCCCCCn1cc[n+](C)c1.N#C[B-](C#N)(C#N)C#N: the activity coefficient (318.15 K) stood at 11.7 ± 0.5; the activity coefficient (328.15 K) is 11.1 ± 0.5; the activity coefficient (338.15 K) was 10.7 ± 0.5; the activity coefficient (348.15 K) is 10.3 ± 0.5; the activity coefficient (358.15 K) is 9.91 ± 0.46; the activity coefficient (368.15 K) stood at 9.64 ± 0.44.

In the case of `CCCCCCCC` [octane] + CCCCCCn1cc[n+](C)c1.N#C[B-](C#N)(C#N)C#N, the activity coefficient came to 22.8 ± 1.1 (318.15 K); 21.1 ± 1 (328.15 K); 19.7 ± 0.9 (338.15 K); 18.6 ± 0.9 (348.15 K); 17.4 ± 0.8 (358.15 K); 16.6 ± 0.8 (368.15 K).

Take `CCCC(C)=O` [pentan-2-one] + CCCCCCn1cc[n+](C)c1.N#C[B-](C#N)(C#N)C#N: the activity coefficient runs as follows: (318.15 K) 0.497 ± 0.033; (328.15 K) 0.513 ± 0.032; (338.15 K) 0.529 ± 0.032; (348.15 K) 0.544 ± 0.032; (358.15 K) 0.556 ± 0.032; (368.15 K) 0.572 ± 0.031.

Turning to `CCC(=O)CC` [pentan-3-one] + CCCCCCn1cc[n+](C)c1.N#C[B-](C#N)(C#N)C#N, the activity coefficient stood at 0.478 ± 0.033 (318.15 K); 0.498 ± 0.033 (328.15 K); 0.518 ± 0.032 (338.15 K); 0.536 ± 0.032 (348.15 K); 0.551 ± 0.032 (358.15 K); 0.569 ± 0.031 (368.15 K).

With `CCCCC` [pentane] + CCCCCCn1cc[n+](C)c1.N#C[B-](C#N)(C#N)C#N, the activity coefficient turned out to be 8.63 ± 0.4 (318.15 K); 8.22 ± 0.38 (328.15 K); 7.85 ± 0.36 (338.15 K); 7.61 ± 0.35 (348.15 K); 7.33 ± 0.34 (358.15 K); 7.13 ± 0.33 (368.15 K).

For `CCCO` [propan-1-ol] + CCCCCCn1cc[n+](C)c1.N#C[B-](C#N)(C#N)C#N, the activity coefficient came out at 1.19 ± 0.04 (318.15 K); 1.1 ± 0.03 (328.15 K); 1.02 ± 0.03 (338.15 K); 0.965 ± 0.026 (348.15 K); 0.913 ± 0.026 (358.15 K); 0.864 ± 0.027 (368.15 K).

With `CC(C)O` [propan-2-ol] + CCCCCCn1cc[n+](C)c1.N#C[B-](C#N)(C#N)C#N, the activity coefficient (318.15 K) was found to be 1.2 ± 0.04; the activity coefficient (328.15 K) was found to be 1.11 ± 0.03; the activity coefficient (338.15 K) turned out to be 1.03 ± 0.03; the activity coefficient (348.15 K) was 0.961 ± 0.026; the activity coefficient (358.15 K) was 0.902 ± 0.026; the activity coefficient (368.15 K) came to 0.852 ± 0.027.
